The text below walks through data of patent publication US20090298890A1, “NEW N-METHYL BENZAMIDE DERIVATIVES” (BAYER CROPSCIENCE SA, priority 2006, published 2009).

One test deals with Alternaria alternata. Description: Cell test on Alternaria alternata. In kind it is cell-based. The settings on record: under similar conditions (10 ppm, OD 620 nm after 5 days at 20° C.). The procedure:
Cell Test on Alternaria Alternata The growth of Alternaria alternata is performed on PDA medium at 20° C. under black light during 14 days. The PDA medium is prepared by mixing 39 grams of PDA (Merck) in 1 liter of demineralized water. The medium is sterilized by autoclave 15 minutes at 121° C. After 14 days of growth, the spores of Alternaria alternata are recovered in sterilized water and the concentration of spores adjusted to 10^6 spores per ml. The compounds is solubilized in DMSO and added to sterile liquid glucose/mycopeptone medium (14.6 g/l of D-glucose, 7.1 g/l of mycological peptone (Oxoid) and 1.4 g/l of yeast extract (Merck)) at a concentration of 10 ppm. The medium is inoculated with the spore suspension at a concentration of 10^5 spores per ml. The efficacy of the compounds is assessed by OD measurement at 620 nm after 5 days at 20° C. in comparison with a control.

The test system of a further test is Pyrenophora teres. Description: In vivo test on Pyrenophora teres (barley net blotch). The settings on record: barley plants (Express variety), preventive spray 24 hours before contamination, dose 330 ppm, grading 12 days after contamination vs control plants. The procedure:
In Vivo Test on Pyrenophora Teres (Barley Net Blotch)
The active ingredients tested are prepared by homogenization in a mixture of acetone/tween/DMSO, then diluted with water to obtain the desired active material concentration.
Barley plants (Express variety), sown on a 50/50 peat soil-pozzolana substrate in starter cups and grown at 12° C., are treated at the 1-leaf stage (10 cm tall) by spraying with the active ingredient prepared as described above. Plants, used as controls, are treated with the mixture of acetone/tween/DMSO/water not containing the active material.
After 24 hours, the plants are contaminated by spraying them with an aqueous suspension of Pyrenophora teres spores (12,000 spores per ml). The spores are collected from a 12-day-old culture. The contaminated barley plants are incubated for 24 hours at about 20° C. and at 100% relative humidity, and then for 12 days at 80% relative humidity.
Grading is carried out 12 days after the contamination, in comparison with the control plants.

Structures are written as SMILES.

In the case of `O=C(NOCc1ncc(C(F)(F)F)cc1Cl)c1c(Cl)cccc1Cl` [Compound 501], the activity result in the test with Alternaria alternata was “did not show any activity”.
The same measure, in the same setting: as for `O=C(NOCc1ncc(C(F)(F)F)cc1Cl)c1c(F)cccc1F` [Compound 502, N-{[3-chloro-5-(trifluoromethyl)pyridin-2-yl]methoxy}-2,6-difluorobenzamide], the entry is “did not show any activity”.
For the compound `O=C(NCOc1ncc(C(F)(F)F)cc1Cl)c1ccccc1C(F)(F)F` [Compound 1, N-({[3-chloro-5-(trifluoromethyl)pyridin-2-yl]oxy}methyl)-2-(trifluoromethyl)benzamide], the protection entry with Pyrenophora teres was “at least 60%”.
